# Measurements published in patent US11167015B2, “Arginine and its use as a T cell modulator” (INSTITUTE FOR RESEARCH IN BIOMEDICINE, priority 2016, dated 2021).
# How the values were obtained:
# human naïve CD4+ T cells [1] = assay: Nitric oxide formation measured using DAF-FM diacetate; type: cell-based; conditions: L-arginine-supplemented medium vs normal medium
# Procedure: FIG. 9. Impact of L-citrulline on metabolism, Related to FIG. 3. (A) Human naïve CD4^+ T cells were activated in normal medium or in L-Arg medium. Nitric oxide formation was measured using DAF-FM diacetate at different time points. (B) T cells were activated in control medium (Ctrl, containing 1 mM L-arginine), or in medium supplemented with 3 mM L-arginine (L-Arg) or 3 mM L-citrulline (L-Cit) and harvested at different time points. […] Shown are only metabolites with a log 2 fold change >1 and an adjusted p value of <0.05. n=6 from one donor. Log 2 fold change between 0 and >+2 for L-Orn, L-Arg and L-Cit exemplarily indicated as “high”.
# activated (96 h) T cells = assay: Measurements of oxygen consumption rate (Seahorse); type: cell-based, human; conditions: medium supplemented with 3 mM L-arginine, 96 h activated
# Procedure: Measurements were performed using a Seahorse XF-24 extracellular flux analyzer (Seahorse Bioscience). Naïve CD4^+ T cells were sorted and activated with plate-bound CD3 and CD28 antibodies in complete medium or medium supplemented with 3 mM L-arginine. Four days later (in the morning), cells were pooled, carefully count and plated (7×10^5 cells/well) in serum-free unbuffered RPMI-1640 medium (Sigma) onto Seahorse cell plates coated with Cell-Tak (BD Bioscience). The serum-free unbuffered medium was not supplemented with L-arginine. Oligomycin (1.4 μM, Sigma), Carbonyl cyanide-4-(trifluoromethoxy)phenylhydrazone (FCCP, 0.6 μM, Sigma) and antimycin (1.4 μM, Sigma) were injected.
# human naïve CD4+ T cells [2] = assay: Cytokine analysis (IFN-gamma); type: cell-based
# Procedure: 10^5 naïve T cells were stimulated with plate bound anti-CD3 (5 μg ml^−1) and anti-CD28 (1 μg ml^−1) in the presence of IL-12 (10 ng/ml, R&D Systems) to polarize cells towards a Th1 phenotype. After 48 h, cells were transferred into U-bottom plates and IL-2 (10 ng/ml, R&D Systems) was added. Three days later, supernatants were collected and interferon-γ was quantified using FlowCytomix assays (eBioscience). Samples were analyzed on a BD LSR Fortessa FACS instrument and quantification was performed with the FlowCytomix Pro 3.0 software. For re-stimulation, cells were cultured for 5 h in the presence of 0.2 μM phorbol 12-myristate 13-acetate (PMA) and 1 μg/ml ionomycin (both from Sigma).
# activated CD4+ T cells = assay: IL-2 withdrawal assay and assessment of cell viability, CD4+ T cells; type: cell-based, human
# Procedure: Naïve CD4 T cells were activated with plate-bound CD3 and CD28 antibodies. 48 h after activation IL-2 was added to culture media (500 U ml^−1). After a further 3 days of culturing, cells were washed, counted and equal cell numbers were plated in medium devoid of IL-2. The withdrawal medium was no longer supplemented with e.g. L-arginine. Cell viability was assessed with annexin V.
# mTOR = assay: Analysis of phosphorylation levels of 4E-BP and S6K1; type: cell-based, human; conditions: 3 mM L-arginine supplementation, 4 days activated
# Procedure: Naïve CD4^+ T cells were activated with plate-bound antibodies to CD3 and CD28. Four days after activation, cells were lysed and analyzed by Western blot with the following antibodies obtained from Cell Signaling Technology. Phospho-p70 S6K(Thr389) #9205; p70 S6 Kinase #9202; Phospho-4E-BP1 (Thr37/46) #2855; 4E-BP1 #9644. Rapamycin (Sigma) was used at 100 nM.
# B16.OVA melanoma = assay: Tumor experiment: in vivo priming of T cells, oral L-arginine; design: species or system C57BL/6 mice; conditions: mice fed with L-arginine 1.5 mg/g body weight daily vs PBS
# Procedure: B16-OVA melanoma cells were cultured and injected into Wt C57BL/6 mice as described above. Five clays post injection, when tumors were very small, mice were γ-irradiated (5 Gy) and 24 hours later they received 4×10^5 OT-I cells intravenously (i.v.). The clay after mice were immunized intraperitoneally (i.p.) with […] peptide (OVA257-264) in Inject Alum Adjuvant (Thermo Fisher Scientific). L-Arg (1.5 g/Kg body weight) or PBS, as control, was daily orally administrated, starting one clay before T cell transfer and until the end of the experiment. The size of tumors was measured in a blinded fashion using calipers.
structure (smiles),measurement,setting,value
N=C(N)NCCC[C@H](N)C(=O)O [L-arginine],nitric oxide,human naïve CD4+ T cells [1],did not increase
same,mitochondrial spare respiratory capacity (SRC),activated (96 h) T cells,augmented
same,oxygen consumption increase,activated (96 h) T cells,1.7 fold
same,IFN-gamma secretion,"human naïve CD4+ T cells [2]; L-arginine-supplemented medium, 10 ng/ml IL-12, supernatants after 5 days",much less
same,IFN-gamma secretion after re-activation,human naïve CD4+ T cells [2]; re-activation for 5 h with PMA/Ionomycin,comparable amounts
same,time of addition after T cell activation at which most effective on survival,activated CD4+ T cells; L-Arg 3 mM added at indicated time points,≤ 48 h
same,survival of activated CD4+ T cells in the absence of exogenous cytokines,"activated CD4+ T cells; metabolites 3 mM, except for spermidine 0.1 mM, 5 days after IL-2 withdrawal",significantly increased
same,phosphorylation levels of two targets of mTOR (p70 S6K1 and 4E-BP),mTOR,did not change
same,anti-tumor response of OT-I T cells primed in vivo,B16.OVA melanoma,superior in mediating an anti-tumor response
